Among the data in patent US20160137639A1, “TRIAZOLE-ISOXAZOLE COMPOUND AND MEDICAL USE THEREOF” (JAPAN TOBACCO INC., priority 2012, published 2016) are EC50 values, retold here.

SMILES strings stand for the structures. A value given as a limit tells only on which side of the number the result lay.

For one test, the target named is T1, mouse RORγ (Mus musculus, UniProt P51450).
T1 construct: mouse, NM_011281.2 and from Ile251 to Lys516; expressed in transfected cells; host or cells: CHO cells (transient co-transfection with pG5-Luc reporter)
T1 sequence (P51450 251-516): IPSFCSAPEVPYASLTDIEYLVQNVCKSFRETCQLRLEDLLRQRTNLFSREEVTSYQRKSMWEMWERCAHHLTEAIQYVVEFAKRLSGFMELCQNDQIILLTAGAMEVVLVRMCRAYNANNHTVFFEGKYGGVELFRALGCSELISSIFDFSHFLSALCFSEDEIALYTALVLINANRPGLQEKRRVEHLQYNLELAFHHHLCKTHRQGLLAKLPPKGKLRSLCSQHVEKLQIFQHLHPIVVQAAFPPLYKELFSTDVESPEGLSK
Description: Luciferase reporter gene assay of inhibitory effect against RORγ transcriptional activity (GAL4-mRORγ plasmid in CHO cells). Particulars: read-out: LUC EC50 (μM) mRORg. Format: cell-based. The method, then:
(§1) In vitro assay of inhibitory effect against RORγ transcriptional activity
(§2) Inhibitory effect of test article on transcriptional activity of RORγ was measured by means of the following luciferase reporter gene assay.
(§3) A cDNA encoding human and mouse RORγ ligand binding domain (LBD) were obtained based on the reported sequences (Genebank accession number and sequence: human, NM_005060.3 and from Ser253 to Lys518; mouse, NM_011281.2 and from Ile251 to Lys516).
(§4) The cDNA of human RORγ or mouse RORγ was inserted into pFA-CMV vector (Strategene), which expresses GAL4-DNA binding domain fusion protein.
(§5) The resulting plasmids are hereinafter referred to as GAL4-hRORγ plasmid and GAL4-mRORγ plasmid, respectively.
(§6) Human or mouse GAL4-RORγ plasmid was transiently co-transfected into Chinese hamster ovary cells (CHO cells) with […] plasmid, a reporter plasmid expressing firefly luciferase depending on GAL4.
(§7) TransIT CHO transfection reagent (Mirus) was used to co-transfect human or mouse GAL4-RORγ plasmid into CHO cells with pG5-Luc plasmid.
(§8) One day before the assay, CHO cells were suspended in HAM F-12 Nutrient medium containing 10 v/v % fetal bovine serum and seeded at 6×10^6 cells per 175 cm^2 cell culture flask.
(§9) Fifty four micro litters of Transit-CHO reagent was added into a 15 ml tube containing 1.16 ml of HAM F-12 Nutrient medium without fetal bovine serum and incubated at room temperature for 10 min.
(§10) The mixture was incubated at room temperature for 10 min.
(§11) Nine micro litters of CHO Mojo Reagent was then added into each tube and mixed gently. The mixture was incubated at room temperature for 10 min.
(§12) The resultant transfection reagent was applied to the cell culture.
(§13) After incubation at 37° C., 5% CO2 for 4 hr, the transfected CHO cells were harvested by a trypsin treatment.
(§14) The collected cells were resuspended in HAM F-12 Nutrient medium supplemented with 10 v/v % fetal bovine serum and plated into a 384-well-white plate at 8,000 cells/50 uL/well.
(§15) The plate was incubated at room temperature for 1 hour and then further incubated at 37° C., 5% CO2 for 3 hours.
(§16) The test articles were dissolved in dimethylsulfoxide (DMSO) to obtain a concentration of 10 mmol/L. The resulting solution was diluted with the medium just before use and added to the cells in the plate to prepare 8 different concentrations of the test article.
(§17) The final concentration of DMSO was 0.1 v/v % After the addition of the test articles, the cells were incubated at 37° C., 5% CO2 for 2 days.
(§18) RORγ transcriptional activity was detected as the intracellular luciferase activity using SteadyLite HTS Reporter Gene Assay System (Perkin Elmer).
(§19) StedyLite Reagent was diluted five-fold into a solution containing 10 mM Tricine, 0.2% w/v BSA, 0.02% v/v Tween-20 to obtain the luciferase substrate solution.
(§20) After the measurement of the cell viability using Resazurin, the culture media in the 384 well-plate were removed. Then the Luc substrate solution was added into each well.
(§21) After the incubation at room temperature for 10 minutes, luminescence of each well was measured by a microplate reader.
(§22) The luciferase activity derived from the luminescence count in the vehicle-control well treated with 0.1% DMSO alone was defined as 100%, and the luciferase activity in the test article was calculated as a percentage (%-of-control) based on the value of the vehicle-control.
(§23) EC50 value of test article was calculated by curve fitting with GraphPad Prism.
(§24) The luminescence counts at the concentration of the test article where the cytotoxicity was observed were excluded from the data analysis.

A further test deals with T2, human RORγ (Homo sapiens, UniProt P51449).
T2 construct: human, NM_005060.3 and from Ser253 to Lys518; expressed in transfected cells; host or cells: CHO cells (transient co-transfection with pG5-Luc reporter)
T2 sequence (P51449 253-518): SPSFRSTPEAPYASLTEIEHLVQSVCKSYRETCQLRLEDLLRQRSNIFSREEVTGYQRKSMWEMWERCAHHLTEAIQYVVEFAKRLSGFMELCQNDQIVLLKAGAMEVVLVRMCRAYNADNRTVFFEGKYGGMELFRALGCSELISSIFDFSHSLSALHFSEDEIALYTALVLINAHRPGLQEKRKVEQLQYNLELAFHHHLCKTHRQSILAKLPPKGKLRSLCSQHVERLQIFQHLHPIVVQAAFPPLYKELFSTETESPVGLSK
Put plainly: Luciferase reporter gene assay of inhibitory effect against RORγ transcriptional activity (GAL4-hRORγ plasmid in CHO cells). Particulars: read-out: LUC EC50 (μM) hRORg. Format: cell-based. As to the method:
as §1, §2, §3, §4, §5, §6, §7, §8, §9
A total 36 uL plasmid solution containing the GAL4-hRORγ plasmid (400 ng), pG5-Luc plasmid (9000 ng) and pcDNA3 plasmid (8600 ng) were added into the tube and mixed gently.
as §10, §11, §12, §13, §14, §15, §16, §17, §18, §19, §20, §21, §22, §23, §24
(A reporter such as luciferase makes a cellular process visible.)

In the case of `CC(=O)N1C[C@H](C(=O)Nc2ccc(C)cc2C)[C@@H](c2nnc(CCC(C)C)n2C2CC2)C1` (racemic) [Example F-162], the EC50 (commonly the concentration that produces a half-maximal response) at mouse RORγ was < 3 µM; on human RORγ, > 3 µM.
For `Cc1c(Cl)cccc1NC(=O)CC(O)c1nnc(CCC(C)C)n1C1CC1` (racemic) [Example F-164] the same measures were < 3 µM and > 3 µM.
Taken in the same sequence, the figures for `Cc1c(Cl)cccc1NC(=O)CC(CO)c1nnc(CCC(C)C)n1C1CC1` (racemic) [Example F-167] were < 3 µM and < 3 µM.
`COc1cc(C)ccc1CNC(=O)[C@H]1CN(C(C)=O)C[C@@H]1c1nnc(CCC2CCCCC2)n1C1CC1` (racemic) [Example F-173]: the EC50 at mouse RORγ and on human RORγ was < 3 µM throughout.
Consider `Cc1c(Cl)cccc1NC(=O)CC(CCO)c1nnc(CCC(C)C)n1C1CC1` (racemic) [Example F-175], for which the concentration giving a half-maximal response (EC50) on mouse RORγ and at human RORγ was < 3 µM throughout.
`COc1cc(C)ccc1CNC(=O)CC(CCO)c1nnc(CCC(C)C)n1C1CC1` (racemic) [Example F-176]: the EC50 at mouse RORγ and at human RORγ was > 3 µM in each case.
For the compound `Cc1c(Cl)cccc1NC(=O)CCc1nnc(C(O)CC(C)C)n1C1CC1` (racemic) [Example F-182], the EC50 at mouse RORγ was < 3 µM; at human RORγ, > 3 µM.
For `Cc1c(Cl)cccc1NC(=O)CCc1nnc(CCC2CCCN(C(=O)OC(C)(C)C)C2)n1C1CC1` (racemic) [Example F-186] the same measures were < 3 µM and < 3 µM.
Taken in the same sequence, the figures for `Cc1c(Cl)cccc1NC(=O)CCc1nnc(CCC2CCCNC2)n1C1CC1` (racemic) [Example F-189] were > 3 µM and > 3 µM.
For `CC(=O)N1CCCC(CCc2nnc(CCC(=O)Nc3cccc(Cl)c3C)n2C2CC2)C1` (racemic) [Example F-190] the same measures were > 3 µM and > 3 µM.
In the case of `CC(=O)N1C[C@H](C(=O)Nc2ccc(C)cc2C)[C@@H](c2nnc(CCC3CCCCC3)n2C2CC2)C1` (racemic) [Example F-191], the EC50 on mouse RORγ and on human RORγ was < 3 µM each time.
With `C=CCC(CC(=O)Nc1cccc(Cl)c1C)c1nnc(CCC(C)C)n1C1CC1` (racemic) [Example F-193], the 50% effective concentration (EC50) at mouse RORγ and on human RORγ was < 3 µM each time.
Regarding `CCCC(CC(=O)Nc1cccc(Cl)c1C)c1nnc(CCC(C)C)n1C1CC1` (racemic) [Example F-194], the EC50 at mouse RORγ and on human RORγ was < 3 µM in each case.
Regarding `Cc1c(Cl)cccc1NC(=O)CC(CCCOCc1ccccc1)c1nnc(CCC(C)C)n1C1CC1` (racemic) [Example F-195], the EC50 on mouse RORγ and on human RORγ was < 3 µM each time.
As for `Cc1c(Cl)cccc1NC(=O)CC(CCCO)c1nnc(CCC(C)C)n1C1CC1` (racemic) [Example F-196], the EC50 at mouse RORγ and on human RORγ was < 3 µM in each case.
Turning to `C=CCC(CC(=O)Nc1cccc(Cl)c1C)c1nnc(CCCC(C)C)n1C1CC1` (racemic) [Example F-197], the EC50 at mouse RORγ and at human RORγ was < 3 µM throughout.
For the compound `C=CCC(CC(=O)Nc1ccc(C)cc1C)c1nnc(CCCC(C)C)n1C1CC1` (racemic) [Example F-198], the EC50 at mouse RORγ and at human RORγ was < 3 µM throughout.
Consider `Cc1c(Cl)cccc1NC(=O)CC(CCO)c1nnc(CCCC(C)C)n1C1CC1` (racemic) [Example F-199], for which the EC50 on mouse RORγ and at human RORγ was < 3 µM in each case.
Regarding `C=CCC(CC(=O)NCc1ccc(C)cc1OC)c1nnc(CCCC(C)C)n1C1CC1` (racemic) [Example F-200], the EC50 at mouse RORγ and at human RORγ was < 3 µM each time.
For the compound `Cc1ccc(NC(=O)CC(CCO)c2nnc(CCCC(C)C)n2C2CC2)c(C)c1` (racemic) [Example F-201], the EC50 at mouse RORγ and at human RORγ was < 3 µM each time.
In the case of `COc1cc(C)ccc1CNC(=O)CC(CCO)c1nnc(CCCC(C)C)n1C1CC1` (racemic) [Example F-202], the EC50 at mouse RORγ and on human RORγ was < 3 µM throughout.
In the case of `Cc1c(Cl)cccc1NC(=O)CCc1nnc(CCC2CCCN(C)C2)n1C1CC1` (racemic) [Example F-203], the EC50 at mouse RORγ and at human RORγ was > 3 µM throughout.
Turning to `Cc1ccc(NC(=O)CCc2nnc(CCC3CCCCC3)n2C2CC2(F)F)c(C)c1` (racemic) [Example F-211], the half-maximal effective concentration (EC50) at mouse RORγ and on human RORγ was < 3 µM in each case.
On to `Cc1c(Cl)cccc1NC(=O)CC(CCCO)c1nnc(CCCC(C)C)n1C1CC1` (racemic) [Example F-212], for which the EC50 at mouse RORγ and at human RORγ was < 3 µM throughout.
Turning to `Cc1c(Cl)cccc1NC(=O)CC(CC(=O)O)c1nnc(CCCC(C)C)n1C1CC1` (racemic) [Example F-213], the EC50 at mouse RORγ and at human RORγ was > 3 µM in each case.
For the compound `Cc1ccc(NC(=O)CC(CCCO)c2nnc(CCCC(C)C)n2C2CC2)c(C)c1` (racemic) [Example F-214], the EC50 at mouse RORγ and at human RORγ was < 3 µM throughout.
`CC(=O)N1C[C@H](C(=O)Nc2ccc(C)cc2C)[C@@H](c2nnc(CCCC(C)(C)C)n2C2CC2)C1` (racemic) [Example F-219]: the EC50 on mouse RORγ and at human RORγ was < 3 µM throughout.
Turning to `CC(=O)N1C[C@H](C(=O)Nc2ccc(C)cc2C)[C@@H](c2nnc(CCCC(C)C)n2C2CC2)C1` (racemic) [Example F-220], the concentration for a half-maximal effect (EC50) on mouse RORγ and on human RORγ was < 3 µM throughout.
Turning to `CC(=O)N1C[C@H](C(=O)Nc2ccc(C)cc2C)[C@@H](c2nnc(CCOC(C)(C)C)n2C2CC2)C1` (racemic) [Example F-222], the values for the EC50 on mouse RORγ and at human RORγ were < 3 µM and > 3 µM, respectively.
For `CC(=O)N1C[C@H](C(=O)Nc2ccc(C)cc2C)[C@@H](c2nnc(CCC(C)(C)C)n2C2CC2)C1` (racemic) [Example F-223] the same measures were < 3 µM and < 3 µM.
Taken in the same sequence, the figures for `Cc1c(Cl)cccc1NC(=O)CC(CCN1C(=O)c2ccccc2C1=O)c1nnc(CCCC(C)C)n1C1CC1` (racemic) [Example F-224] were < 3 µM and < 3 µM.
For `Cc1c(Cl)cccc1NC(=O)CC(CCN)c1nnc(CCCC(C)C)n1C1CC1` (racemic) [Example F-225] the same measures were > 3 µM and > 3 µM.
With `CCC(C)CCc1nnc(CCC(=O)Nc2cccc(Cl)c2C)n1C1CC1` (racemic) [Example F-235], the EC50 on mouse RORγ and on human RORγ was < 3 µM throughout.
For `CCC(C)CCc1nnc(CCC(=O)Nc2ccc(C)cc2C)n1C1CC1` (racemic) [Example F-236], the EC50 on mouse RORγ was < 3 µM; on human RORγ it was > 3 µM.
